Tested on: luteinising hormone and follicle-stimulating hormone genes in the pituitary gland
Assay: Gene expression (HGU133A) in the pituitary gland of ovariectomized monkeys treated with estradiol, tamoxifen or raloxifene
Format: in vivo, cynomolgus monkeys (Macaca fascicularis)
Conditions: for Fold change relative to OVX: Follicle stimulating hormone / Fold change relative to OVX: Luteinising hormone / Fold expression change to SHAM control: Follicle stimulating hormone / Fold expression change to SHAM control: Luteinising hormone: pituitary gland
Protocol: Female sexually mature cynomolgus monkeys (Macaca fascicularis obtained from R. C. Hartelust B V, Tilburg, the Netherlands) approximately 48 months old were subjected to surgery (ovarectomy [OVX] or sham) 10 weeks prior to treatment and were treated for parasitic arthropods and helminthes, subjected to a tuberculin testing, and acclimated to the treatment facility for at least 14 days before beginning treatment.
Surgical Procedures. The ovariectomized cynomolgus monkey (Macaca fascicularis), which has been validated as a useful model predictive of outcomes in human clinical trials of estrogen and SERMs (Cline J M et al., Toxicol Pathol. 29:84-90 (2001)), was used as a model of estrogen deficiency. Animals were ovariectomized approximately 10 weeks before the first day of treatment. The ovaries were removed following anesthesia with a combined intramuscular injection of xylazine (Rompun®: 0.4 mL/animal, Bayer Pharma Division Sante Animale, Puteaux, France) and ketamine hydrochloride (Imalgéne®: 0.6 mL/kg, Mérial, Lyon, France). Sham-operated animals were subjected to the same surgical procedure, except for the removal of ovaries.
Ovariectomized and sham-operated animals were divided into groups of 4 and treated as outlined below.
Gene expression was determined in the pituitary and uterus at the end of drug therapy. Tissues to be analyzed (pituitary glands and uterus) were excised, snap frozen in liquid nitrogen, and stored at −80° C. until RNA extraction was performed.
Total RNA was obtained by acid guanidinium isothiocyanate-phenol-chloroform extraction (Trizol; Invitrogen Life Technologies, San Diego, Calif., USA) and purified on an affinity resin column (RNeasy; Qiagen, Hilden, Germany) according to manufacturer instructions. […] Lockhart D J, Dong H, Byrne M C, et al. Nat. Biotechnol. 1996; 14:1675-1680.
Previous studies have proven the validity of cross-species DNA chip analysis (Hacia J G et al. Nat Genet. 18:155-158 (1998)), therefore, the human gene expression probe arrays HGU133A (Affymetrix, Santa Clara, Calif., USA) containing 22,283 probe sets interrogating primarily annotated human genes were used. One GeneChip was used per tissue, per animal. The resulting image files (.dat files) were processed using the Microarray Analysis Suite 5 (MAS5) software (Affymetrix, Inc.). Tab-delimited files were obtained containing data regarding signal intensity (Signal) and categorical expression level measurement (Absolute Call).

Row | Structure (SMILES) | Fold change relative to OVX: Follicle stimulating hormone [fold] | Fold change relative to OVX: Luteinising hormone [fold] | Fold expression change to SHAM control: Follicle stimulating hormone (OVX monkeys) [fold] | Fold expression change to SHAM control: Luteinising hormone (OVX monkeys) [fold] | Decrease of FSH transcripts in the pituitary gland (OVX monkeys) [fold] | Decrease of LH transcripts in the pituitary gland (OVX monkeys) [fold]
1 | C#C[C@]1(O)CC[C@H]2[C@@H]3CCc4cc(O)ccc4[C@H]3CC[C@@]21C [EE] | <0.1 | 0.1 | 0.1 | 0.5 |  | 
2 | O=C(c1ccc(OCCN2CCCCC2)cc1)c1c(-c2ccc(O)cc2)sc2cc(O)ccc12 [raloxifene] | 0.8 | 1.3 | 5.2 | 9.8 |  | 
3 | CC/C(=C(\c1ccccc1)c1ccc(OCCN(C)C)cc1)c1ccccc1 [tamoxifen] | 0.4 | 0.4 | 2.3 | 3.2 | 2.7 | 2.4

From patent US20130040882A1, “USE OF FIBROBLAST GROWTH FACTOR FRAGMENTS” (NOVARTIS AG, priority 2003, published 2013)
